Where two headings read alike, the source gives them in different places.
Key:
[1] = system: KMS12-BM (NIK WT) multiple myeloma cells; test: Antiproliferative activity on KMS12-BM multiple myeloma cells (CellTiter-Glo, 96 hr), Biological Assay C; type: cell-based, human; details: averaged values, read-out: KMS-12 Proliferation inhibition (IC50 (nM))
Experimental: (§1) Determination of Antiproliferative Activity on JJN-3 (NIK Translocated) and KMS12-BM (NIK WT) Multiple Myeloma Cells
(§2) All compounds tested were dissolved in DMSO and further dilutions were made in culture medium. Final DMSO concentration was 0.3% (v/v) in cell proliferation assays. Viability was assessed using CellTiter-Glo cell viability assay kit (Promega). The human JJN-3 and KMS12-BM cells (DSMZ) were cultured in RPMI 1640 medium supplemented with 2 mM L-glutamine, and 10% fetal calf serum (PAA). Cells were routinely kept as suspension cells at 37° C. in a humidified 5% CO2 atmosphere. Cells were passaged at a seeding density of 0.2×10^6/ml twice a week. Cells were seeded in black tissue culture treated 96-well plates (Perkin Elmer). Densities used for plating ranged from 15000 (JJN3) to 20000 (KMS12BM) cells per well in a total volume of 135 μl medium. Drugs and/or solvents were added (15 μl) to a final volume of 150 μl. Following 96 hr of treatment, plates were removed from the incubator and allowed to equilibrate to room temperature for approx 10 min. 75 μl CellTiter-Glo reagent was added to each well that was then covered (Perkin Elmer Topseal) and shaken on plate shaker for 10 min. Luminescence was measured on a HTS Topcount (Perkin Elmer).
(§3) Within an experiment, the results for each treatment were the mean of 2 replicate wells. For initial screening purposes, compounds were tested using a 9 point dilution curve (serial 1:3 dilutions). For each experiment, controls (containing no drug) and a blank incubation (containing cells read at the time of compound addition) were run in parallel. The blank value was subtracted from all control and sample values. For each sample, the mean value for cell growth (in relative light units) was expressed as a percentage of the mean value for cell growth of the control.

[2] = biological target: recombinant human NF-kappaB-inducing kinase (NIK/MAP3K14) (Homo sapiens, UniProt Q99558); test: Inhibition of auto-phosphorylation of recombinant human NIK/MAP3K14 activity (AlphaScreen), Biological Assay A; type: biochemical; details: averaged values over all measurements on all batches
Sequence of recombinant human NF-kappaB-inducing kinase (NIK/MAP3K14) (Q99558 whole entry): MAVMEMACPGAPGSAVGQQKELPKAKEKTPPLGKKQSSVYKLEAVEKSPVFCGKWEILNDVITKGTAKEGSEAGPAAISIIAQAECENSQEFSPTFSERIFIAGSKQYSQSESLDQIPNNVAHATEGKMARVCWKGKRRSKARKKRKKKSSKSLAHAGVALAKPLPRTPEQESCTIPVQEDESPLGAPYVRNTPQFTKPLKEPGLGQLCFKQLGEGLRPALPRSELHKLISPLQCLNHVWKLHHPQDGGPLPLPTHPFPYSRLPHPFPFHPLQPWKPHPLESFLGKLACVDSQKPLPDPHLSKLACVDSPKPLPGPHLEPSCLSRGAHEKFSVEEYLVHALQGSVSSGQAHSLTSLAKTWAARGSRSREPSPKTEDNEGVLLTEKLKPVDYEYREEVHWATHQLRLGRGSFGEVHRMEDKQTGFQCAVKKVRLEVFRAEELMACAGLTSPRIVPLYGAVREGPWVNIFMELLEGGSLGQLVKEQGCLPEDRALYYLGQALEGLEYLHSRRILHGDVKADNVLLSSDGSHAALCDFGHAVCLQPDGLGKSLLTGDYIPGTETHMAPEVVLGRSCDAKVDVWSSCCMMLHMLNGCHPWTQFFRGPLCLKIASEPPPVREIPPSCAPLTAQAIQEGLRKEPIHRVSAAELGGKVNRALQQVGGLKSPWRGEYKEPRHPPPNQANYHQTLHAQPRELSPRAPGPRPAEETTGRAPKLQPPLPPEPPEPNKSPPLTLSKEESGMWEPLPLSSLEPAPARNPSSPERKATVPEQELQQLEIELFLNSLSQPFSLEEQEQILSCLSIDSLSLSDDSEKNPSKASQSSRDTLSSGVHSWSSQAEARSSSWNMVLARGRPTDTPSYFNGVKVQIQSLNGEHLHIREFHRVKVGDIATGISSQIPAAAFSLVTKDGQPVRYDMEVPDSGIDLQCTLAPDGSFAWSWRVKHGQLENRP
Experimental: Inhibition of Auto-Phosphorylation of Recombinant Human NF-kappaB-Inducing Kinase (NIK/MAP3K14) Activity (AlphaScreen®)
NIK/MAP3K14 auto-phosphorylation activity was measured using the AlphaScreen® (αscreen) format (Perkin Elmer). All compounds tested were dissolved in dimethyl sulfoxide (DMSO) and further dilutions were made in assay buffer. Final DMSO concentration was 1% (v/v) in assays. Assay buffer was 50 mM Tris pH 7.5 containing 1 mM EGTA (ethylene glycol tetraacetic acid), 1 mM DTT (dithiothreitol), 0.1 mM Na3VO4, 5 mM MgCl2, 0.01% Tween® 20. Assays were carried out in 384 well Alphaplates (Perkin Elmer). Incubations consisted of compound, 25 microM Adenosine-5′-triphosphate (ATP), and 0.2 nM NIK/MAP3K14. Incubations were initiated by addition of GST-tagged NIK/MAP3K14 enzyme, carried out for 1 h at 25° C. and terminated by addition of stop buffer containing anti-phospho-IKK Ser176/180 antibody. Protein A Acceptor and Glutathione-Donor beads were added before reading using an EnVision® Multilabel Plate Reader (Perkin Elmer). Signal obtained in the wells containing blank samples was subtracted from all other wells and IC50's were determined by fitting a sigmoidal curve to % inhibition of control versus Log10 compound concentration.

[3] = system: JJN-3 (NIK translocated) multiple myeloma cells; test: Antiproliferative activity on JJN-3 multiple myeloma cells (CellTiter-Glo, 96 hr), Biological Assay C; type: cell-based, human; details: JJN-3 (NIK translocated) cells, averaged values, read-out: JJN-3 Proliferation inhibition (IC50 (nM))
Experimental: as §1, §2, §3

Row | SMILES | IC50 ([1]; Homo sapiens, KMS-12-BM, 96 h) | melting point | IC50 [2] | IC50 ([3]; Homo sapiens, JJN-3, 96 h) | IC50 [1] | IC50 [3]
1 | CN1CCCC(Oc2ccc(Cl)cc2Nc2nccc(-c3cc(C#N)c4c(c3)C(C)(CO)CN4)n2)C1 (mixture of isomers) [Compound 39] | 2340 nM | 173 °C | 7.4 nM | 87 nM |  | 
2 | COc1cc(C(=O)NC2CNCC2O)c(Cl)cc1Nc1nccc(-c2cc(C#N)c3c(c2)C(C)(C)CN3)n1 (mixture of isomers) [Compound 124] | 437 nM |  | 1.6 nM | 525 nM |  | 
3 | COc1cc(C(=O)N2CC[C@@H]3CNC[C@@H]32)c(Cl)cc1Nc1nccc(-c2cc(C#N)c3c(c2)C(C)(C)CN3)n1 (relative stereo) [Compound 122] | ~4470 nM |  | 4.7 nM | 35 nM |  | 
4 | Cc1ccc(C#N)cc1Nc1nccc(-c2cc(C#N)c3c(c2)C(C)(CO)CN3)n1 (stereo not drawn) [Compound 26] | > 10000 nM | 195 °C | 3.7 nM | 255 nM |  | 
5 | Cc1ccc(Cl)cc1Nc1nccc(-c2cc(C#N)c3c(c2)C(C)(CO)CN3)n1 (stereo not drawn) [Compound 27] | > 10000 nM | 289 °C | 9.2 nM | 106 nM |  | 
6 | CC1(CO)CNc2c(C#N)cc(-c3ccnc(Nc4cc(Cl)ccc4Cl)n3)cc21 (stereo not drawn) [Compound 29] | > 10000 nM | 210 °C | 17.4 nM | 166 nM |  | 
7 | COc1ccc(C(F)(F)F)cc1Nc1nccc(-c2cc(C#N)c3c(c2)C(C)(CO)CN3)n1 (stereo not drawn) [Compound 30] | > 10000 nM | 224 °C | 51.3 nM | > 10000 nM |  | 
8 | COc1ccc(C#N)cc1Nc1nccc(-c2cc(C#N)c3c(c2)C(C)(CO)CN3)n1 (stereo not drawn) [Compound 31] | > 10000 nM | 295 °C | 5.3 nM | 2340 nM |  | 
9 | CC1(CO)CNc2c(C#N)cc(-c3ccnc(Nc4cc(C#N)ccc4Cl)n3)cc21 (stereo not drawn) [Compound 32] | > 10000 nM | 274 °C | 4 nM | 170 nM |  | 
10 | COc1ccc(Cl)cc1Nc1nccc(-c2cc(C#N)c3c(c2)C(C)(CO)CN3)n1 (stereo not drawn) [Compound 33] | > 10000 nM | 239 °C | 11.2 nM | 85 nM |  | 
11 | COCCOc1ccc(Cl)cc1Nc1nccc(-c2cc(C#N)c3c(c2)C(C)(CO)CN3)n1 (stereo not drawn) [Compound 34] | > 10000 nM | 184 °C | 20.9 nM | 316 nM |  | 
12 | CC1(CO)CNc2c(C#N)cc(-c3ccnc(Nc4cc(Cl)ccc4OC4CCN(C5CC5)CC4)n3)cc21 (stereo not drawn) [Compound 35] | 7080 nM | 192 °C | 37.2 nM | 129 nM |  | 
13 | CC1(CO)CNc2c(C#N)cc(-c3ccnc(Nc4ccc(C5CCOCC5)c(C(F)(F)F)c4)n3)cc21 (stereo not drawn) [Compound 36] | 6460 nM | 263 °C | 75.9 nM | 51 nM |  | 
14 | COCCOc1cc(C2CCOCC2)ccc1Nc1nccc(-c2cc(C#N)c3c(c2)[C@@](C)(CO)CN3)n1 [Compound 61] | > 10000 nM |  | 11 nM | 186 nM |  | 
15 | C[C@]1(CO)CNc2c(C#N)cc(-c3ccnc(Nc4ccccc4P(C)(C)=O)n3)cc21 [Compound 62] |  | 228 °C | 912 nM |  |  | 
16 | CC(C)Oc1ccc(C(F)(F)F)cc1Nc1nccc(-c2cc(C#N)c3c(c2)C(C)(CO)CN3)n1 (stereo not drawn) [Compound 76] | > 10000 nM |  | 186 nM | 2340 nM |  | 
17 | COC(=O)c1cc(Nc2nccc(-c3cc(C#N)c4c(c3)C(C)(CO)CN4)n2)cc(C(F)(F)F)c1 (stereo not drawn) [Compound 77] | ~2460 nM |  | 46.8 nM | 126 nM |  | 
18 | COCc1cc(OC)c(Nc2nccc(-c3cc(C#N)c4c(c3)C(C)(C)CN4)n2)cc1Cl [Compound 88] | > 10000 nM |  | 85.1 nM | 178 nM |  | 
19 | COCCN1CCN(c2cc(OC)c(Nc3nccc(-c4cc(C#N)c5c(c4)C(C)(C)CN5)n3)cc2Cl)CC1 [Compound 89] | > 10000 nM |  | 20.9 nM | ~100 nM |  | 

Row | SMILES | IC50 ([1]; Homo sapiens, KMS-12-BM, 96 h) | melting point | IC50 [2] | IC50 ([3]; Homo sapiens, JJN-3, 96 h) | IC50 [1] | IC50 [3]
20 | CC1(C)CNc2c(C#N)cc(-c3ccnc(Nc4cc(Cl)ccc4S(C)(=O)=O)n3)cc21 [Compound 90] | > 10000 nM |  | 219 nM | > 10000 nM |  | 
21 | CCN1CCN(c2cc(C)c(Nc3nccc(-c4cc(C#N)c5c(c4)C(C)(C)CN5)n3)cc2Cl)CC1 [Compound 91] | > 10000 nM |  | 7.2 nM | ~107 nM |  | 
22 | COc1cc(N2CCC(OC)CC2)c(Cl)cc1Nc1nccc(-c2cc(C#N)c3c(c2)C(C)(C)CN3)n1 [Compound 92] | > 10000 nM |  | 138 nM | 389 nM |  | 
23 | COc1cc(N2CCN(C(C)C)CC2)c(Cl)cc1Nc1nccc(-c2cc(C#N)c3c(c2)C(C)(C)CN3)n1 [Compound 93] | > 10000 nM |  | 11.5 nM | 83 nM |  | 
24 | COCCN1CCC(c2cc(OC)c(Nc3nccc(-c4cc(C#N)c5c(c4)C(C)(C)CN5)n3)cc2C)CC1 [Compound 94] | > 10000 nM |  | 9.8 nM | 166 nM |  | 
25 | COc1cc(OCCN2CCN(C)CC2)c(Cl)cc1Nc1nccc(-c2cc(C#N)c3c(c2)C(C)(C)CN3)n1 [Compound 95] | > 10000 nM |  | 9.3 nM | 129 nM |  | 
26 | COc1cc(S(C)(=O)=O)c(F)cc1Nc1nccc(-c2cc(C#N)c3c(c2)C(C)(C)CN3)n1 [Compound 96] | > 10000 nM |  | 9.1 nM | ~81 nM |  | 
27 | COc1cc(N2CCC(O)C2)c(Cl)cc1Nc1nccc(-c2cc(C#N)c3c(c2)C(C)(C)CN3)n1 (stereo not drawn) [Compound 97] | 4360 nM |  | 45.7 nM | 59 nM |  | 
28 | COc1cc(N2CCN(C3CC3)CC2)c(Cl)cc1Nc1nccc(-c2cc(C#N)c3c(c2)C(C)(C)CN3)n1 [Compound 98] | > 10000 nM |  | 129 nM | 105 nM |  | 
29 | CNCCOc1ccc(Cl)cc1Nc1nccc(-c2cc(C#N)c3c(c2)C(C)(C)CN3)n1 [Compound 109] |  | 152 °C | 53.7 nM | 676 nM |  | 
30 | COc1cc(C(=O)N2CC(O)C2)c(Cl)cc1Nc1nccc(-c2cc(C#N)c3c(c2)C(C)(C)CN3)n1 [Compound 110] | > 10000 nM |  | 4.2 nM | 193 nM |  | 
31 | COc1cc(C(=O)NC2CCC(O)C2)c(Cl)cc1Nc1nccc(-c2cc(C#N)c3c(c2)C(C)(C)CN3)n1 (stereo not drawn) [Compound 115] | > 10000 nM |  | 4.9 nM | 166 nM |  | 
32 | COc1cc(C(=O)NC2CCC(O)C2)c(Cl)cc1Nc1nccc(-c2cc(C#N)c3c(c2)C(C)(C)CN3)n1 (stereo not drawn) [Compound 116] |  |  | 6.8 nM |  | > 10000 nM | 162 nM
33 | COc1cc(C(=O)N2CC3C(CO)C3C2)c(Cl)cc1Nc1nccc(-c2cc(C#N)c3c(c2)C(C)(C)CN3)n1 (stereo not drawn) [Compound 117] | 1550 nM |  | 4.7 nM | 19 nM |  | 
34 | COc1cc(C(=O)NC2CC(F)(F)C2)c(Cl)cc1Nc1nccc(-c2cc(C#N)c3c(c2)C(C)(C)CN3)n1 [Compound 118] | > 10000 nM |  | 25.7 nM | 933 nM |  | 
35 | COc1cc(C(=O)N2CCCC(O)CC2)c(Cl)cc1Nc1nccc(-c2cc(C#N)c3c(c2)C(C)(C)CN3)n1 (stereo not drawn) [Compound 119] | 1380 nM |  | 7.1 nM | 28 nM |  | 
36 | COc1cc(C(=O)N2CC3CC(C2)C3O)c(Cl)cc1Nc1nccc(-c2cc(C#N)c3c(c2)C(C)(C)CN3)n1 (stereo not drawn) [Compound 120] | > 10000 nM |  | 15.5 nM | 25 nM |  | 
37 | CNC(=O)c1ccc(C)c(Nc2ncnc(-c3cc(C#N)c4c(c3)[C@@](C)(CO)CN4)n2)c1 [Compound 214] |  | 252 °C | 6.9 nM |  |  | 
